Here are results for two molecules from US10526416B2, “Anti-HER3 antibodies and uses of same” (Yeda Research and Development Co. Ltd., priority 2014, dated 2020).

One data set has as its system PC9ER-AZDR cells. The experiment in a line: MTT assay on PC9ER-AZDR cells. To be noted: 72 hours treatment. (In general: Tetrazolium dyes change colour on reduction, which living cells bring about.)
The subject of the next data set is H1975 NSCLC cells. Put plainly: H1975 NSCLC tumor growth in CD1-nu/nu mice. In kind it is in vivo.
For another data set, the system named is EGFR phosphorylation. Put plainly: Western blot of EGFR phosphorylation in PC9ER-AZDR cells. In kind it is cell-based, human. As to conditions: 6 hours, 1 μM. For orientation: In western blotting, separated proteins are transferred to a membrane and probed.
The target of the next data set is T1, IgB3 (Homo sapiens, UniProt P21860).
T1 construct: To produce IgB3 (recombinant HER3 extracellular domain fused to a human IgG Fc domain); made in house
T1 sequence (P21860 20-643 limits assumed): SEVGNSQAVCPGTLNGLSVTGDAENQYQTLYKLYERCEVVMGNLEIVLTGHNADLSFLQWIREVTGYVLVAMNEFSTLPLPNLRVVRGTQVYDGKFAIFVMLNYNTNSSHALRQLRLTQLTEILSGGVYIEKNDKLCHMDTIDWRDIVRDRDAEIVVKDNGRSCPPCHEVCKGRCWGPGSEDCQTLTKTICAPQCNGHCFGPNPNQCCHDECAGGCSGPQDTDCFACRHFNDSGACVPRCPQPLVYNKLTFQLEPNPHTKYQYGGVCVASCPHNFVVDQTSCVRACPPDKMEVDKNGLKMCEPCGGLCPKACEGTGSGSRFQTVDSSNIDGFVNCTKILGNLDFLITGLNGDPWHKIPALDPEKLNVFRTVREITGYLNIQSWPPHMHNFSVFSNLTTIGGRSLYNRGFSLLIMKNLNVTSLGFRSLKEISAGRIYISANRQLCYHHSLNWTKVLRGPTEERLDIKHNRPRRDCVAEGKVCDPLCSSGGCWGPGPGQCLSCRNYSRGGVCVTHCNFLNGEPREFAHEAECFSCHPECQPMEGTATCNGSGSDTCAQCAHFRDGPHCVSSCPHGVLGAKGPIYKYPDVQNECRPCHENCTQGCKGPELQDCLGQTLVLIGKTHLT
T1 sequence (P01857 99-330 partner limits assumed): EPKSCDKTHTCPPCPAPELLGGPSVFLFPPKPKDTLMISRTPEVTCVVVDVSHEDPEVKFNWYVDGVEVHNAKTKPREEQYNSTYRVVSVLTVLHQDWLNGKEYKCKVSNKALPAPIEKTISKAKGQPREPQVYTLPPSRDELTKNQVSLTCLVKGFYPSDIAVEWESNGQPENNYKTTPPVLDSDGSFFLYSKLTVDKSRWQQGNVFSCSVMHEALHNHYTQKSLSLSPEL
Put plainly: Antibody competition assay with Lumi4(Tb)-labeled NG33 on IgB3-coated plates. In kind it is binding. To be noted: NG33-K2 1 nM. On the procedure: FIGS. 12A-D show a combination of two mAbs directed to two different epitopes of HER3. (FIGS. 12A and 12B) The antibodies NG33 and XC252 were labeled with the fluorescent dye Lumi4® Tb Cryptate (K2). 96 well-plate were coated with IgB3 (1.5 μg/ml), blocked with PBS-BSA and incubated for 1 h with various concentrations of mAbs under gentle shaking at RT. The labeled mAb, NG33-K2 (FIG. 12A) or XC252-K2 (FIG. 12B), was then added at 1 nM final concentration. After ah incubation, the plate was washed 4 times with KREBS buffer, and the fluorescence intensity at 610 nm was measured using a fluorescence microplate reader. (FIG. 12C) The various anti-HER3 mAb combinations were studied for their ability to trigger HER3 degradation using N87 cells. Cells were treated for 2 h at 37° C. with mAb (10 μg/ml). After cell lysis and protein extraction, the samples were subjected to immunoblotting with the indicated antibodies. (FIG. 12D) The combination's capacity to modulate NRG-induced phosphorylation of HER3, AKT and ERK was evaluated using N87 cells. After 20 min treatment at 37° C. with 10 μg/ml of mAbs, NRG (20 ng/ml) was added to the cells for 10 min. The cells were then lysed, and equal quantities of lysate protein were electrophoresed before immunoblotting, as indicated.
Agent labeling was performed by Cisbio. […] Following 1 h incubation, the plate was washed 4 times with KREBS buffer (146 mM NaCl, 4 mM KCl, 0.5 mM MgCl2, 1 mM CaCl2, 10 mM Hepes, 1 gr/L glucose, and 1 mg/mL albumin), and the fluorescent intensity (excitation: 488 nm, emission: 610 nm) was measured using a fluorescence microplate reader. […] Finally, following two washes with KREBS buffer, the fluorescence intensity was measured at 670 nm (excitation: 620 nm).
Combinations of antibodies directed against two different epitopes of the same receptor, as has been previously shown, can improve the effect of treatment with a single mAb (28, 29). […] First, it was determined which antibody from the anti-HER3 series targets an epitope distinct from that targeted by NG33. […]

A further data set relates to BxPC3 cells. Put plainly: MTT assay on BxPC3 cells in culture. In kind it is cell-based, human. To be noted: 3 days. Here is the method: (§1) FIGS. 15A-F show the effects of a mixture of two anti HER3 mAbs, in vivo on BxPC3 cell xenografts and in vitro. (FIGS. 15A-C) CD1-Nude mice were grafted subcutaneously with 5×10^6 BxPC3 cells. Once tumors became palpable (after 13 days), the mice were randomized into group of 8 mice and treated every 3 days for 5 weeks. The control group (CTRL) was injected intra-peritoneally (IP) with 200 μl PBS. The other groups were treated with mAb alone or in combination at a final concentration of 0.2 mg/0.2 ml of PBS per mouse. The mice were weighted once a week and the tumors measured twice a week. An average tumor size of 7-8 mice (+/−SEM) is shown. (FIGS. 15D-F) Proliferation assays using MTT were performed on BxPC-3. 5,000 cells per well were plated the day before and treated for 72 h with the indicated mAb treatment. Decreasing concentrations of the indicated mAb (alone or in combination) were used in medium supplemented with 1% serum and NRG (10 ng/ml).
To determine if the combination of NG33 mAb with another anti-HER3 mAb is more efficient than using NG33 alone, the combination of two mAbs, NG33 and XC252, was tested on several tumor cell lines, which were grafted subcutaneously (gastric: N87, lung: A549, pancreatic: BxPC3, ovarian: OVCAR-5, and head and neck: CAL-27, FIG. 14). This pilot was performed with 3 mice per group. Mice were injected twice a week with the mAb combination or with PBS. The best responder of these in vivo models for solid tumor growth was the BxPC3 xenograft model. […] This experiment was performed on 7 to 8 mice per group. The mice were treated every 3 days with PBS, each mAb alone or a mAb combination, for 5 weeks (0.2 mg/injection). […] In order to reinforce the in vivo data, the cytotoxicity of each mAb alone or in combination with NG33 was tested on BxPC3 cells in culture (FIGS. 15D, 15E and 15F). Decreasing concentrations of mAb were used and a MTT assay was performed following 3 days of treatment. […] On the contrary, XC252 used alone has a […] cytotoxic impact on BxPC3 proliferation leading to 60% inhibition of cell survival at high concentration.

Another data set has as its system BxPC3 xenografts. Put plainly: BxPC3 cell xenografts in CD1-Nude mice. In kind it is in vivo. To be noted: 0.2 mg/injection IP every 3 days for 5 weeks, 7 to 8 mice per group. Here is the method:
as §1
All animal studies were approved by the Weizmann Institute's Review Board (IRB). Tumor bearing CD1/nude mice were randomized in groups of five-ten mice and injected subcutaneously in the right flank with cancer cells (3-5×10^6 per mouse depending on the cell line). mAbs were injected intraperitoneally at a total dose of 200 μg per mouse per injection, twice a week, for 5 weeks or until tumors reached the size of 1,500 mm^3. In experiments evaluating the effect of the TKI AZD-9291, Vehicle (Vehicle formulation: HPMC 0.5% (sigma Cat#56340), Tween80 0.1% (Sigma Cat #P8074 in water), Erlotinib at a dose of 50 mg/kg per injection, or AZD9291 at a dose of 1 or 5 mg/kg per injection were injected daily intraperitoneally. In one experiment (FIG. 16), mice were treated daily with Erlotinib at a dose of 50 mg/kg per injection until tumors reached a size of 800 mm^3 and only then were treated as indicated. Tumor volume and body weight were evaluated twice and once per week, respectively. Mice were euthanized when tumor size reached 1,500 mm^3. […] Survival of the tumor bearing mice was recorded and depicted by Kaplan-Meier analysis. […]

Procedure for EGFR phosphorylation: Cells were grown under specified conditions or treated as indicated. Following the cells were washed twice with cold PBS and scraped into lysis buffer [50 mM Hepes (pH 7.5), 10% glycerol, 150 mM NaCl, 1% Triton X-100, 1 mM EDTA, 1 mM EGTA, 10 mM NaF, 0.1 mM Na3VO4, and a complete protease inhibitor cocktail]. Thereafter, lysates were centrifuged at 14,000 g for 15 minutes at 4° C. The supernatant was used for subsequent procedures. Western blot analyses were conducted following protein separation using gel electrophoresis and transfer to nitrocellulose membranes. Immunoblotting was performed according to the antibody manufacturers' recommendation. Blocking was done using 5% milk in PBST (0.5% Tween20 Sigma Cat#P9416). Antibody binding to membrane blots was detected using horseradish peroxidase-secondary antibodies (Jackson ImmunoResearch Laboratories), followed by treatment with ECL Western blotting detection reagents (GE Healthcare).

For the molecule `C=CC(=O)Nc1cc(Nc2nccc(-c3cn(C)c4ccccc34)n2)c(OC)cc1N(C)CCN(C)C` [AZD-9291], the “survival / sensitivity of PC9ER-AZDR cells (MTT)” value in the data set with PC9ER-AZDR cells was “lost sensitivity to AZD-9291”. Moreover, in the data set on H1975 NSCLC cells (AZD9291 5 mg/kg/day or triple mAbs), the “inhibition of H1975 tumor growth” value is listed as “comparably inhibited growth of the erlotinib-resistant human NSCLC”. Further, the body weight gain result in the data set on H1975 NSCLC cells (H1975 tumor-bearing mice, AZD9291 5 mg/kg/day) is given as “slightly inhibited body weight gain compared with the triple mAb combination”. The “EGFR phosphorylation in PC9ER-AZDR cells on exposure” value with EGFR phosphorylation is given as “EGFR remained phosphorylated”.

B1: NG140: anti-HER3 mAb; light chain CDRs SEQ ID NOs: 13-15, heavy chain CDRs 16-18 (antibody, V domains shown)
VH: QVQLKESGPGLVKPSQSLSLTCSVTGYSITSGYYWNWIRQFPGNKLEWMGSIYYDGSNNYNPSLKNRISVTRDTSKNQFFLKLNSVTTEDTATYYCARDYDVGYAMDYWGQGASVTVSS
VL: DIVLTQSSSYLSVSLGGRVTITCKASDHINNWLAWYQQKPGNAPRLLISGATSLETGVPSRFSGSGSGKDYTLSITSLQTEDVATYYCQQYWSIPWTFGGGTKLEIK
modifications: VH chain of NG140 polypeptide; VL chain of NG140 polypeptide
Regarding B1, the “effect on binding of Lumi4(Tb)-labeled NG33 to IgB3” value with IgB3 was “did not alter NG33 binding”. In the data set with BxPC3 cells, the “effect on BxPC3 proliferation/survival (in words)” value is reported as “did not interfere with cell proliferation”. For the same molecule, in the data set on BxPC3 xenografts, the “effect on BxPC3 xenograft tumor growth” value was “no statistically significant ability to decrease tumor growth”.
